Measurements from patent publication US6737383B1, “Herbicidal oxadiazolidines” (priority 1999, dated 2004).

Key:
bedstraw = assay: Test B pre/postemergence bedstraw; assay type: in vivo, Galium aparine
Outline: (§1)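 Herbicidal effect was estimated by eye on a ten-point control scale after plants spent twelve to sixteen days in a greenhouse following soil or foliar treatment. Foliar sprays targeted plants at one to four leaves; all doses were formulated in a non-phytotoxic solvent with surfactant.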

blackgrass = assay: Test B pre/postemergence blackgrass; assay type: in vivo, Alopecurus myosuroides
Outline: as §1

surinam grass = assay: Test B pre/postemergence surinam grass; assay type: in vivo, Brachiaria decumbens
Outline: as §1

cocklebur = assay: Test B pre/postemergence cocklebur; assay type: in vivo, Xanthium strumarium
Outline: as §1

corn = assay: Test B pre/postemergence corn; assay type: in vivo, Zea mays
Outline: as §1

crabgrass = assay: Test B pre/postemergence crabgrass; assay type: in vivo, Digitaria sanguinalis
Outline: as §1

giant foxtail = assay: Test B pre/postemergence giant foxtail; assay type: in vivo, Setaria faberii
Outline: as §1

morningglory = assay: Test B pre/postemergence morningglory; assay type: in vivo, Ipomoea hederacea
Outline: as §1

pigweed = assay: Test B pre/postemergence pigweed; assay type: in vivo, Amaranthus retroflexus
Outline: as §1

rape = assay: Test B pre/postemergence rape; assay type: in vivo, Brassica napus
Outline: as §1

soybean = assay: Test B pre/postemergence soybean; assay type: in vivo, Glycine max
Outline: as §1

sugar beet = assay: Test B pre/postemergence sugar beet; assay type: in vivo, Beta vulgaris
Outline: as §1

velvetleaf = assay: Test B pre/postemergence velvetleaf; assay type: in vivo, Abutilon theophrasti
Outline: as §1

wheat = assay: Test B pre/postemergence wheat; assay type: in vivo, Triticum aestivum
Outline: as §1

wild oat = assay: Test B pre/postemergence wild oat; assay type: in vivo, Avena fatua
Outline: as §1

purple nutsedge = assay: Test B pre/postemergence purple nutsedge; assay type: in vivo, Cyperus rotundus
Outline: as §1

rice = assay: Test B flood test rice; assay type: in vivo, Oryza sativa; conditions: Pre-emergence
Outline: (§2)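 Plants were grown to the 2-leaf stage before treatment with test chemical, then held in a greenhouse for twelve to sixteen days. Injury was visually rated against untreated controls on a 0–10 scale, where 0 is no effect and 10 is complete control.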

smallflower flatsedge = assay: Test B flood test smallflower flatsedge; assay type: in vivo, Cyperus difformis; conditions: Pre-emergence
Outline: as §2

duck salad = assay: Test B flood test duck salad; assay type: in vivo, Heteranthera limosa; conditions: Pre-emergence
Outline: as §2

bamyardgrass = assay: Test B flood test barnyardgrass; assay type: in vivo, Echinochloa crus-galli; conditions: Pre-emergence
Outline: as §2

[1] = Preemergence, Rate 62 g/ha, scale of 0 to 10 where 0 is no effect and 10 is complete control
[2] = Preemergence, Rate 250 g/ha, scale of 0 to 10 where 0 is no effect and 10 is complete control
[3] = Preemergence, Rate 500 g/ha, scale of 0 to 10 where 0 is no effect and 10 is complete control
[4] = Rate 62 g/ha, Postemergence, scale of 0 to 10 where 0 is no effect and 10 is complete control
[5] = Rate 125 g/ha, Postemergence, scale 0 to 10
[6] = Rate 125 g/ha, Preemergence, scale of 0 to 10 where 0 is no effect and 10 is complete control
[7] = Rate 500 g/ha, Postemergence, scale 0 to 10, 0 no effect, 10 complete control
[8] = Rate 1000 g/ha, scale 0 to 10 (0 no effect, 10 complete control)
[9] = Rate 125 g/ha, flood test species, scale 0 to 10 where 0 is no effect and 10 is complete control
[10] = Rate 250 g/ha, flood-test species, scale 0 to 10, 0 is no effect, 10 is complete control
[11] = Rate 500 g/ha, flood test species, scale 0 to 10 (0 no effect, 10 complete control)

With `CCOC(=O)C(C)N(C(=O)n1oc(=O)n(CC)c1=O)c1ccc(F)cc1` (stereo not drawn) [Compound 248] the “Bedstraw plant response rating” value (bedstraw; [1]) was 0, the “Bedstraw plant response rating” value (bedstraw; [2]) was 0 and the “Plant response rating, Bedstraw” value (bedstraw; [3]) was 0. The “Bedstraw plant response rating” value (bedstraw; [4]) was 0, the “Bedstraw plant response rating” value (bedstraw; [5]) was 0 and the “Bedstraw plant response rating” value (bedstraw; [6]) was 0. The “Plant response rating (0 to 10; 0 is no effect, 10 is complete control), Bedstraw” value (bedstraw; Rate 250 g/ha, Postemergence) was 0, the “Bedstraw plant response rating” value (bedstraw; [7]) was 0 and the “Blackgrass plant response rating” value (blackgrass; [1]) was 0. For the same compound, the “Blackgrass plant response rating” value (blackgrass; [2]) was 0, the “Plant response rating, Blackgrass” value (blackgrass; [3]) was 0 and the “Blackgrass plant response rating” value (blackgrass; [4]) was 0. For the same compound, the “Blackgrass plant response rating” value (blackgrass; [5]) was 0, the “Blackgrass plant response rating” value (blackgrass; [6]) was 0 and the “Plant response rating (0 to 10; 0 is no effect, 10 is complete control), Blackgrass” value (blackgrass; Rate 250 g/ha, Postemergence) was 0. The “Blackgrass plant response rating” value (blackgrass; [7]) was 0, the “B. signalgrass plant response rating” value (surinam grass; [1]) was 0 and the “B. signalgrass plant response rating” value (surinam grass; [2]) was 0. The “Plant response rating, B. signalgrass” value (surinam grass; [3]) was 0, the “B. signalgrass plant response rating” value (surinam grass; [4]) was 0 and the “B. signalgrass plant response rating” value (surinam grass; Rate 125 g/ha, Postemergence, scale 0 (no effect) to 10 (complete control)) was 0. For the same compound, the “B. signalgrass plant response rating” value (surinam grass; [6]) was 0, the “Plant response rating (0 to 10; 0 is no effect, 10 is complete control), B. signalgrass” value (surinam grass; Rate 250 g/ha, Postemergence) was 0 and the “B. signalgrass plant response rating” value (surinam grass; [7]) was 0. For the same compound, the “Cocklebur plant response rating” value (cocklebur; [1]) was 0, the “Cocklebur plant response rating” value (cocklebur; [2]) was 0 and the “Plant response rating, Cocklebur” value (cocklebur; [3]) was 0. For the same compound, the “Cocklebur plant response rating” value (cocklebur; [4]) was 0, the “Cocklebur plant response rating” value (cocklebur; [5]) was 0 and the “Cocklebur plant response rating” value (cocklebur; [6]) was 0. The “Plant response rating (0 to 10; 0 is no effect, 10 is complete control), Cocklebur” value (cocklebur; Rate 250 g/ha, Postemergence) was 0, the “Cocklebur plant response rating” value (cocklebur; [7]) was 0 and the “Corn plant response rating” value (corn; [1]) was 0. The “Corn plant response rating” value (corn; [2]) was 0, the “Plant response rating, Corn” value (corn; [3]) was 0 and the “Corn plant response rating” value (corn; [4]) was 0. The “Corn plant response rating” value (corn; [5]) was 0, the “Corn plant response rating” value (corn; [6]) was 0 and the “Plant response rating (0 to 10; 0 is no effect, 10 is complete control), Corn” value (corn; Rate 250 g/ha, Postemergence) was 0. The “Corn plant response rating” value (corn; [7]) was 0, the “Crabgrass plant response rating” value (crabgrass; [1]) was 0 and the “Crabgrass plant response rating” value (crabgrass; [2]) was 0. For the same compound, the “Plant response rating, Crabgrass” value (crabgrass; [3]) was 0, the “Crabgrass plant response rating” value (crabgrass; [6]) was 0 and the “Plant response rating (0 to 10; 0 is no effect, 10 is complete control), Crabgrass” value (crabgrass; Rate 250 g/ha, Postemergence) was 0. For the same compound, the “Crabgrass plant response rating” value (crabgrass; [7]) was 0, the “Giant foxtail plant response rating” value (giant foxtail; [1]) was 0 and the “Giant foxtail plant response rating” value (giant foxtail; [2]) was 0. The “Plant response rating, Giant foxtail” value (giant foxtail; [3]) was 0, the “Giant foxtail plant response rating” value (giant foxtail; [6]) was 0 and the “Plant response rating (0 to 10; 0 is no effect, 10 is complete control), Giant foxtail” value (giant foxtail; Rate 250 g/ha, Postemergence) was 0. The “Giant foxtail plant response rating” value (giant foxtail; [7]) was 0, the “Morningglory plant response rating” value (morningglory; [1]) was 0 and the “Morningglory plant response rating” value (morningglory; [2]) was 0. For the same compound, the “Plant response rating, Morningglory” value (morningglory; [3]) was 0, the “Morningglory plant response rating” value (morningglory; [6]) was 0 and the “Plant response rating (0 to 10; 0 is no effect, 10 is complete control), Morningglory” value (morningglory; Rate 250 g/ha, Postemergence) was 0. For the same compound, the “Morningglory plant response rating” value (morningglory; [7]) was 0, the “Redroot pigweed plant response rating” value (pigweed; [1]) was 0 and the “Redroot pigweed plant response rating” value (pigweed; [2]) was 0. For the same compound, the “Plant response rating, Redroot pigweed” value (pigweed; [3]) was 0, the “Redroot pigweed plant response rating” value (pigweed; [6]) was 0 and the “Plant response rating (0 to 10; 0 is no effect, 10 is complete control), Redroot pigweed” value (pigweed; Rate 250 g/ha, Postemergence) was 0. The “Redroot pigweed plant response rating” value (pigweed; [7]) was 0, the “Rape plant response rating” value (rape; [1]) was 0 and the “Rape plant response rating” value (rape; [2]) was 0. The “Plant response rating, Rape” value (rape; [3]) was 0, the “Rape plant response rating” value (rape; [6]) was 0 and the “Plant response rating (0 to 10; 0 is no effect, 10 is complete control), Rape” value (rape; Rate 250 g/ha, Postemergence) was 0. The “Rape plant response rating” value (rape; [7]) was 0, the “Soybean plant response rating” value (soybean; [1]) was 0 and the “Soybean plant response rating” value (soybean; [2]) was 0. For the same compound, the “Plant response rating, Soybean” value (soybean; [3]) was 0, the “Soybean plant response rating” value (soybean; [6]) was 0 and the “Soybean plant response rating” value (soybean; [7]) was 1. The “Sugarbeets plant response rating” value (sugar beet; [1]) was 0, the “Sugarbeets plant response rating” value (sugar beet; [2]) was 0 and the “Plant response rating, Sugarbeets” value (sugar beet; [3]) was 0. For the same compound, the “Sugarbeets plant response rating” value (sugar beet; [6]) was 0, the “Sugarbeets plant response rating” value (sugar beet; [7]) was 0 and the “Velvetleaf plant response rating” value (velvetleaf; [1]) was 0. The “Velvetleaf plant response rating” value (velvetleaf; [2]) was 0, the “Plant response rating, Velvetleaf” value (velvetleaf; [3]) was 0 and the “Velvetleaf plant response rating” value (velvetleaf; [6]) was 0. For the same compound, the “Velvetleaf plant response rating” value (velvetleaf; [7]) was 0, the “Wheat plant response rating” value (wheat; [1]) was 0 and the “Wheat plant response rating” value (wheat; [2]) was 0. The “Plant response rating, Wheat” value (wheat; [3]) was 0, the “Wheat plant response rating” value (wheat; [6]) was 0 and the “Wheat plant response rating” value (wheat; [7]) was 0. For the same compound, the “Wild oats plant response rating” value (wild oat; [1]) was 0, the “Wild oats plant response rating” value (wild oat; [2]) was 0 and the “Plant response rating, Wild oats” value (wild oat; [3]) was 0. For the same compound, the “Wild oats plant response rating” value (wild oat; [6]) was 0, the “Wild oats plant response rating” value (wild oat; [7]) was 0 and the “Nutsedge plant response rating” value (purple nutsedge; [1]) was 0. The “Nutsedge plant response rating” value (purple nutsedge; [2]) was 0, the “Plant response rating, Nutsedge” value (purple nutsedge; [3]) was 0 and the “Nutsedge plant response rating” value (purple nutsedge; [6]) was 0. For the same compound, the “Plant response rating (0 to 10; 0 is no effect, 10 is complete control), Nutsedge” value (purple nutsedge; Rate 250 g/ha, Postemergence) was 0, the “Nutsedge plant response rating” value (purple nutsedge; [7]) was 0 and the “Rice plant response rating” value (rice; [8]) was 0. For the same compound, the “Rice plant response rating” value (rice; [9]) was 0, the “Rice plant response rating” value (rice; [10]) was 0 and the “Rice plant response rating” value (rice; [11]) was 0. The “S. Flatsedge plant response rating” value (smallflower flatsedge; [8]) was 0, the “S. Flatsedge plant response rating” value (smallflower flatsedge; [9]) was 0 and the “S. Flatsedge plant response rating” value (smallflower flatsedge; [10]) was 0. For the same compound, the “S. Flatsedge plant response rating” value (smallflower flatsedge; [11]) was 0, the “Ducksalad plant response rating” value (duck salad; [8]) was 0 and the “Ducksalad plant response rating” value (duck salad; [9]) was 0. The “Ducksalad plant response rating” value (duck salad; [10]) was 0, the “Ducksalad plant response rating” value (duck salad; [11]) was 0 and the “Barnyardgrass plant response rating” value (bamyardgrass; [8]) was 0. For the same compound, the “Barnyardgrass plant response rating” value (bamyardgrass; [9]) was 0, the “Barnyardgrass plant response rating” value (bamyardgrass; [10]) was 0 and the “Barnyardgrass plant response rating” value (bamyardgrass; [11]) was 0.
